Laboratory results: patent publication US8980934B2, “Kinase inhibitors and method of treating cancer with same” (University Health Network, priority 2012, dated 2015)

How the values were obtained:
Assay type in all cases: cell-based
[1] = system: ovarian 2393A tumor initiating cells; test: Ovarian tumor-initiating cell growth inhibition, Alamar Blue assay; settings: 144 h, ovarian TICs, 6 days culture, read-out: Tumor Initiating Cell Line GI50 Range ovarian 2393A
Description: (§1) Non-tissue or tissure cultured treated T-75 flask and 96-well plates were purchased from VWR. Vitamin B-27 supplement, MEM NEAA (minimum essential medium non essential amino acids), sodium pyruvate, L-glutamine, N2 supplement, penicillin-streptomycin and fungizone/amphotericin B were obtained from Invitrogen. Lipid mixture, heparin and EGF were purchased from Sigma; bFGF from BD Biosciences. Colon tumor initiating cells (TICs) were routinely maintained using non-tissue cultured treated T-75 flasks in DMEM:F12 medium containing 0.2XB-27 supplement, 4 ug/ml heparin, 1XMEM NEAA, 1Xsodium pyruvate, 1 mM glutamine, 10 pg/ul bFGF, 20 pg/ul EGF, 1×N2 supplement, lipid mixture, penicillin-streptomycin and fungizone/amphotericin B. Ovarian TICs were routinely maintained using tissue cultured treated T-75 flasks in DMEM:F12 medium containing 1XB-27 supplement, 4 ug/ml heparin, 20 pg/ul bFGF, 20 pg/ul EGF and penicillin-streptomycin.
(§2) Compounds described herein were dissolved in DMSO and further diluted in cell culture medium for GI50 determination. Colon TICs were trypsinized and seeded into non-tissue cultured treated 96-well plates with 4,000 cells/well. After 24 h, compound was added into the cell culture at different concentrations, and the final concentration of DMSO was adjusted to 0.1%. Cells were then cultured at 37° C. for 9 days. Ovarian TICs were trypsinized and seeded into tissue cultured treated 96-well plates with 1,000 cells/well. After 24 h, compound was added into the cell culture at different concentrations, and the final concentration of DMSO was adjusted to 0.1%. Cells were then cultured at 37° C. for 6 days. Cell viability was assessed by Alamar Blue assay: 10 ul of Alamar Blue was added into each well. After 4 hours incubation at 37° C., fluorescence was recorded at excitation 544 and emission 590. GI50 (Growth inhibition) was calculated using GraphPad Prism 4.0 software. Cell growth inhibition data for compounds described herein is tabulated below (Table 2). The GI50 ranges are indicated as “A,” and “B”, for values less than or equal to 0.1 μM: those greater than 0.1 μM and less than or equal to 0.5 μM, respectively.

[2] = system: colon 12 tumor initiating cells; test: Colon tumor-initiating cell growth inhibition, Alamar Blue assay; settings: 216 h, colon TICs, 9 days culture, read-out: Tumor Initiating Cell Line GI50 Range colon 12
Description: as §1, §2

[3] = system: PA-1 ovarian cancer cells; test: Cancer cell growth inhibition, Sulforhodamine B assay; settings: 120 h; PA-1, 5 days culture, SRB; read-out: Cancer Cell Line GI50 Range PA-1
Method: (§3) Breast cancer cells (MDA-MB-231), colon cancer cells (HCT116) and ovarian cancer cells (PA-1) were seeded (1000 to 4000 in 80 μl per well depending on the cell growth rate) into 96 well plates 24 hours before compound overlay. Compounds were prepared as 10 mM stock solutions in 100% DMSO which were diluted with DMEM (Dulbecco's Modified Eagle's Medium) cell growth Medium (Invitrogen, Burlington, ON, Canada) containing 10% FBS (Fetal Bovine Serum) to concentrations ranging from 50 nM to 250 μM. Aliquots (20 μl) from each concentration were overlaid to 80 μl of the pre-seeded cells in the 96 well plates to make final concentrations of 10 nM to 50 μM. The cells were cultured for 5 days before the Sulforhodamine B assay (SRB) was performed to determine the compound's cell growth inhibition activity.
(§4) Sulforhodamine B (purchased from Sigma, Oakville, ON, Canada) is a water-soluble dye that binds to the basic amino acids of the cellular proteins. Thus, colorimetric measurement of the bound dye provides an estimate of the total protein mass that is related to the cell number. the cells are fixed in situ by gently aspirating off the culture media and adding 50 μl ice cold 10% Trichloroacetic Acid (TCA) per well and incubate at 4° C. for 30-60 min. The plates are washed with H2O five times and allowed to air dry for 5 min. Addition of 50 μl 0.4% (w/v) SRB solution in 1% (v/v) acetic acid to each well and incubatation for 30 min at RT completes the staining reaction. Following staining, plates are washed four times with 1% acetic acid to remove unbound dye and then allowed to air dry for 5 min. The stain is solubilized with 100 μl of 10 mM Tris pH 10.5 per well. Absorbance is read at 570 nm.
(§5) The percentage (%) of relative growth inhibition was calculated by comparing to DMSO treated only cells (100%). GI50's were determined for compounds with cytotoxic activity. The GI50 was calculated using GraphPad PRISM software (GraphPad Software, Inc., San Diego, Calif., USA). GI50 (growth inhibition) is the compound concentration that causes 50% inhibition of cell growth.
(§6) In Table 1 below, GI50 value ranges for several compound examples against breast cancer cell lines (MDA-MB-231), colon cancer cell lines (HCT116) and ovarian cancer cell lines (PA-1) are given. […] The GI50 ranges are indicated as “A,” “B,” and “C,” for values less than or equal to 0.1 μM; those greater than 0.1 μM and less than or equal to 0.5 μM; and those greater than 0.5 μM, respectively.

[4] = system: MDA-MB-231 breast cancer cells; test: as above; settings: Homo sapiens, 120 h; MDA-MB-231, 5 days culture, SRB; read-out: Cancer Cell Line GI50 Range MDA-MB-231
Method: as §3, §4, §5, §6

[5] = system: HCT116 colon cancer cells; test: as above; settings: Homo sapiens, HCT-116, 120 h; HCT116, 5 days culture, SRB; read-out: Cancer Cell Line GI50 Range HCT116
Method: as §3, §4, §5, §6

| GI50 [1] [nM] | GI50 [2] [nM] | GI50 [3] [nM] | GI50 [4] [nM] | GI50 [5] [nM] | SMILES |
| --- | --- | --- | --- | --- | --- |
| ≤ 100 | ≤ 100 | ≤ 100 | ≤ 100 | ≤ 100 | CC(C)[C@H](NC(=O)c1ccc2[nH]nc(-c3ccc(N4CC5(CC(O)C5)C4)cc3)c2c1)c1ccccc1Cl [Example A32, (S)-N-(1-(2-Chlorophenyl)-2-methylpropyl)-3-(4-(6-hydroxy-2-azaspiro[3.3]heptan-2-yl)phenyl)-1H-indazole-5-carboxamide] |
| ≤ 100 | ≤ 100 | ≤ 100 | ≤ 100 | ≤ 100 | O=C(Nc1ccc2[nH]nc(-c3ccc(N4CC5(COC5)C4)cc3)c2c1)C(c1ccsc1)N1CCCC1 (stereo not drawn) [Example A1, N-(3-(4-(2-oxa-6-azaspiro[3.3]heptan-6-yl)phenyl)-1H-indazol-5-yl)-2-(pyrrolidin-1-yl)-2-(thiophen-3-yl)acetamide] |
| 100 to 500 | ≤ 100 | ≤ 100 | ≤ 100 | ≤ 100 | O=C(N[C@H](c1ccccn1)C1CCCC1)c1ccc2[nH]nc(-c3ccc(N4CC5(CCOCC5)C4)cc3)c2c1 [Example A19, (S)-3-(4-(7-Oxa-2-azaspiro[3.5]nonan-2-yl)phenyl)-N-(cyclopentyl(pyridin-2-yl)methyl)-1H-indazole-5-carboxamide] |
| ≤ 100 | ≤ 100 | ≤ 100 | ≤ 100 | ≤ 100 | CC(C)[C@H](NC(=O)c1ccc2[nH]nc(-c3ccc(N4CC5(CCO5)C4)cc3)c2c1)c1ccccc1Cl [Example A23, (S)-3-(4-(1-Oxa-6-azaspiro[3.3]heptan-6-yl)phenyl)-N-(1-(2-chlorophenyl)-2-methylpropyl)-1H-indazole-5-carboxamide] |
| ≤ 100 | ≤ 100 | ≤ 100 | ≤ 100 | ≤ 100 | O=C(N[C@H](c1ccccn1)C1CCCC1)c1ccc2[nH]nc(-c3ccc(N4CC5(CCO5)C4)cc3)c2c1 [Example A20, (S)-3-(4-(1-oxa-6-azaspiro[3.3]heptan-6-yl)phenyl)-N-(cyclopentyl(pyridin-2-yl)methyl)-1H-indazole-5-carboxamide] |
| ≤ 100 | ≤ 100 | ≤ 100 | ≤ 100 | ≤ 100 | O=C(N[C@H](c1ccccn1)C1CCCC1)c1ccc2[nH]nc(-c3ccc(N4CC5(COC5)C4)cc3)c2c1 [Example A2, (S)-3-(4-(2-oxa-6-azaspiro[3.3]heptan-6-yl)phenyl)-N-(cyclopentyl(pyridin-2-yl)methyl)-1H-indazole-5-carboxamide] |
| ≤ 100 | 100 to 500 | ≤ 100 | ≤ 100 | ≤ 100 | O=C(NC(c1ccccn1)C1CC1)c1ccc2[nH]nc(-c3ccc(N4CC5(COC5)C4)cc3)c2c1 (stereo not drawn) [Example A4, 3-(4-(2-Oxa-6-azaspiro[3.3]heptan-6-yl)phenyl)-N-(cyclopropyl(pyridin-2-yl)methyl)-1H-indazole-5-carboxamide] |
| 100 to 500 | 100 to 500 | ≤ 100 | 100 to 500 | ≤ 100 | O=C(NC(c1ccccn1)C1CC1)c1ccc2[nH]nc(-c3ccc(N4CCC5(CC4)COC5)cc3)c2c1 (stereo not drawn) [Example A15, 3-(4-(2-Oxa-7-azaspiro[3.5]nonan-7-yl)phenyl)-N-(cyclopropyl(pyridin-2-yl)methyl)-1H-indazole-5-carboxamide] |
| 100 to 500 | ≤ 100 | ≤ 100 | 100 to 500 | ≤ 100 | O=C(N[C@H](c1ccccc1)C1CC1)c1ccc2[nH]nc(-c3ccc(N4CC5(COC5)C4)cc3)c2c1 [Example A10, 3-(4-(2-Oxa-6-azaspiro[3.3]heptan-6-yl)phenyl)-N-((S)-cyclopropyl(phenyl)methyl)-1H-indazole-5-carboxamide] |
